From US9169295B2, “Macrocycles and macrocycle stabilized peptides” (Bristol-Myers Squibb Company, priority 2010, dated 2015)
Read-outs that look alike come from different tables or passages of the source.

What was measured:
[1] = other bond
[2] = far-UV circular dichroism (CD) spectra with secondary structure estimated by deconvolution (α-helicity of MSP vs linear peptide); format: physicochemical; details: 25° C.
Experimental: To examine the α-helicity of the macrocycle stabilized peptides prepared according to the methods of the present invention, the far-UV circular dichrosim (CD) spectra of linear and macrocyclic peptides were measured and compared. Linear peptide of Example 93 and MSP of Example 93 as dry powder were prepared. A sample of each was weighed into a fresh 20 mL glass vial, and dissolved in anhydrous methanol (B&J), with vortexing for ˜1 min, to yield solutions with concentrations of 200 μM. The concentrations were based on the observed mass of peptide and the respective formula weights. The solutions were transferred to 1.8 mL polypropylene tubes, and centrifuged in a table top microcentrifuge for 5 min at rt and 14,000 rpm to pellet any insoluble material. The supernatants were transferred to clean 1.8 mL tubes for preparing final samples for analysis by circular dichroism (CD). Two sets of samples were prepared, one in 100% methanol at 200 μM peptide, the other in 50% aqueous methanol at 100 μM peptide prepared by adding an equal volume of ddH2O to stock methanol solutions.
Samples were transferred to clean 1 mm quartz cuvettes and CD analysis performed in a JASCO J=815 instrument, and temperature maintained at 25° C. Each peptide sample was scanned from 200-450 nm, using a bandwidth of 1.00 nm, standard sensitivity, data pitch of 0.1 nm, digital integration time of 4.0 sec, a scan speed of 20 nm/min, and 6 acquisitions averaged per sample. Blank solvent samples (100% methanol and 50% aqueous methanol) were recorded simultaneously and subtracted from the peptide spectra prior to final analysis. For calculation of mean residue molar ellipticity (Θ^MRW), the peptide concentration was multiplied by 12 to reflect the number of peptide residues in each molecule. Following blank corrections, the CD data for each peptide in each solvent was corrected for total mean residue ellipticity, and the secondary structure composition estimated by deconvolution using CDPRO module within the JASCO software. Three different algorithms were used for convolution (SELCON, CDSSTR and CONTIN), using the data obtained from 200-240 nm and a 56 protein reference data set. Each algorithm yielded similar distribution of secondary structure elements, and the final results reported as the mean and standard deviation from the three deconvolutions.
The deconvolution algorithms yield secondary structural elements of two types of α-helical structure, two types of […] structure, β-turn structure, and unstructured or random structure. The results reflect the average of summed α-helical forms, summed β-strand forms, the β-turn and unstructured forms from the three algorithms for the peptides in 100% methanol. The overlaid spectra illustrate the difference in signal in the far uv-region (200-240 nm) for the two related peptides in 100% methanol.

[3] = the molecule shown is the open-chain precursor; other bond; 16-membered ring; TfOH; MeNO2; 13.4 mM; 25.0 °C
[4] = 50% aqueous methanol, 100 μM peptide
[5] = 100% methanol, 200 μM peptide, CD 200-240 nm, mean of three deconvolution algorithms
[6] = from (5-(hydroxymethyl)thiazol-2-yl)-Val(D/L)-Ala-Ala-Ala-Ala-Tyr-NH2?, 25-membered ring, TfOH, MeNO2, 6.0 mM, 25.0 °C, 2 steps
[7] = from (5-(hydroxymethyl)thiazol-2-yl)-Val(D/L)-Ala-Ala-Tyr-NH2?, 19-membered ring, TfOH, MeNO2, 11.0 mM, 25.0 °C, 2 steps
[8] = from (5-(hydroxymethyl)thiazol-2-yl)-Val(D/L)-Gly-Tyr-NH2?, 16-membered ring, TfOH, MeNO2, 25.0 °C, 2 steps

Compound: C[C@@H]1NC(=O)CNC2=NC=C(Cc3cc(ccc3O)C[C@@H](C(=O)NCC(=O)O)NC(=O)[C@H](C)NC(=O)[C@H](C)NC1=O)S2
- ring closure, yield after HPLC ([1]; from (5-(hydroxymethyl)thiazol-2-yl)-Gly-Ala-Ala-Ala-Tyr-Gly-OtBu?, 22-membered ring, TfOH, NMM quench, nitromethane, 11.8 mM, 25.0 °C): 42%

Compound: C[C@H](NC(=O)OCC1c2ccccc2-c2ccccc21)C(=O)N[C@@H](C)C(=O)NNC(=O)[C@@H](C)[C@@H](Cc1ccc(O)cc1)C(=O)N[C@@H](C)C(=O)N[C@@H](C)C(=O)NCC(=O)N[C@H]1Cc2ccc(O)c(c2)CC2=CN=C(NCCCNC(=O)[C@H](C)NC(=O)[C@H](C)NC(=O)[C@H](C)NC1=O)S2 [Example 91, C-terminal Macrocycle Peptide]
- unstructured conformation [2, 4]: 32%
- α-helical structure [2, 4]: 23%
- β-structure [2, 4]: 45%
- unstructured conformation [2, 5]: 27%
- α-helical conformation [2, 5]: 53%
- β-structure (β-strand and β-turn conformation) [2, 5]: 22%

Compound: COc1ccc2cc1CC1=CN=C(NCC(=O)N[C@@H](C)C(=O)NCC(=O)NCC(=O)N3C[C@H](O)[C@@H](O)[C@H]3C2)S1 [Macrocycle Anisomycin-GGAG-Thia]
- ring closure, yield after HPLC ([1]; from (S)-N-(2-(2-((2R,3S,4S)-3,4-Dihydroxy-2-(4-methoxybenzyl)pyrrolidin-1-yl)-2-oxoethylamino)-2-oxoethyl)-2-(2-(5-(hydroxymethyl)thiazol-2-ylamino)acetamido)propanamide?, 22-membered ring): 53.2%

Compound: CC[C@H](C)[C@@H]1NC(=O)[C@@H](NC(=O)OCC2c3ccccc3-c3ccccc32)Cc2ccc(OC)c(c2)CC2=CN=C(NCC(=O)NC[C@@H](C(=O)O)NC(=O)[C@H](CCC(=O)OC)NC(=O)CNC1=O)S2 [Macrocycle]
- ring closure, yield after HPLC ([1]; from (5S,8S,14S,17S)-8-((S)-sec-butyl)-1-(9H-fluoren-9-yl)-17-((2-((5-(hydroxymethyl)thiazol-2-yl)amino)acetamido)methyl)-14-(3-methoxy-3-oxopropyl)-5-(4-methoxybenzyl)-3,6,9,12,15-pentaoxo-2-oxa-4,7,10,13,16-pentaazaoctadecan-18-oic acid, 26-membered ring, TfOH, NMM quench, nitromethane, 5.57 mM, 25.0 °C): 40.3%

Compound: C[C@@H]1NC(=O)CNC2=NC=C(Cc3cc(ccc3O)C[C@@H](C(=O)NCC(=O)O)NC(=O)[C@H](C)NC(=O)[C@H](C)NC1=O)S2 [Macrocycle]
- ring closure, yield after HPLC ([1]; from (5-(hydroxymethyl)thiazol-2-yl)-Gly-Ala-Ala-Ala-Tyr-Gly-OtBu?, 22-membered ring, TfOH, NMM quench, nitroethane, 5.7 mM, 25.0 °C): 35%

Compound: C[C@@H]1NC(=O)[C@H](C)NC(=O)[C@H](C)NC(=O)[C@@H](N)Cc2ccc(O)c(c2)CC2=CN=C(NCCCNC1=O)S2 [Macrocycle]
- ring closure, yield after HPLC ([1]; from Boc-Tyr-Ala-Ala-Ala-NH-(CH2)3-NH-[5-(hydroxymethyl)thiazol-2-yl]?, 24-membered ring, TfOH, NMM quench, nitromethane, 9.9 mM): 15.4%

Compound: C[C@H](NC(=O)[C@H](C)NC(=O)CNC(=O)[C@@H]1Cc2ccc(O)c(c2)CC2=CN=C(NCC(=O)N[C@@H](C)C(=O)N[C@@H](C)C(=O)N[C@@H](C)C(=O)N1)S2)C(N)=O [Macrocycle]
- ring closure, yield after HPLC ([1]; from (5-(hydroxymethyl)thiazol-2-yl)-Gly-Ala-Ala-Ala-Tyr-Gly-Ala-Ala-NH2?, 22-membered ring, TfOH, NMM quench, nitroethane/TfOH 1:1, 5.4 mM, 25.0 °C): 62%

Compound: C[C@@H]1NC(=O)[C@H](C)NC(=O)[C@H](Cc2ccccc2)NC(=O)CNC2=NC=C(Cc3cc(ccc3O)C[C@@H](C(N)=O)NC1=O)S2 [Thia-G-F-A-A-Y—CONH2 (SEQ ID NO. 10) macrocycle]
- ring closure, yield after HPLC ([1]; from (5-(hydroxymethyl)thiazol-2-yl)-Gly-Phe-Ala-Ala-Tyr-NH2?, 22-membered ring, TfOH, MeNO2, 11.5 mM, 25.0 °C, 2 steps): 68.5%

Compound: CC(C)[C@@H]1NC2=NC=C(Cc3cc(ccc3O)C[C@@H](C(N)=O)NC(=O)[C@H](C)NC(=O)[C@H](C)NC(=O)[C@H](C)NC(=O)[C@H](C)NC1=O)S2 [Thia-V(d)AAAAY]
- ring closure, yield after HPLC [1, 6]: 22.3%

Compound: CC(C)[C@H]1NC2=NC=C(Cc3cc(ccc3O)C[C@@H](C(N)=O)NC(=O)CNC(=O)[C@H](C)NC(=O)[C@H](C)NC1=O)S2 [Thia-V(d)AAGY Macrocycle]
- ring closure, yield after HPLC ([1]; from (5-(hydroxymethyl)thiazol-2-yl)-dVal-Ala-Ala-Gly-Tyr-NH2?, 22-membered ring, TfOH, MeNO2, 6.83 mM, 25.0 °C, 2 steps): 38.7%

Compound: CC(C)[C@H]1NC2=NC=C(Cc3cc(ccc3O)C[C@@H](C(N)=O)NC(=O)[C@H](C)NC(=O)[C@H](C)NC1=O)S2 [Thia-V(d)AAY]
- ring closure, yield after HPLC [1, 7]: 16.4%

Compound: CC(C)[C@H]1NC2=NC=C(Cc3cc(ccc3O)C[C@@H](C(N)=O)NC(=O)CNC1=O)S2 [Thia-V(d)GY]
- ring closure, yield after HPLC [1, 8]: 22%

Compound: CC(C)[C@@H]1NC2=NC=C(Cc3cc(ccc3O)C[C@@H](C(N)=O)NC(=O)[C@H](C)NC(=O)[C@H](C)NC(=O)[C@H](C)NC(=O)[C@H](C)NC1=O)S2 [Thia-V(l)AAAAY (SEQ ID NO. 12)]
- ring closure, yield after HPLC [1, 6]: 35.2%

Compound: CC(C)[C@@H]1NC2=NC=C(Cc3cc(ccc3O)C[C@@H](C(N)=O)NC(=O)CNC(=O)[C@H](C)NC(=O)[C@H](C)NC1=O)S2 [Thia-V(l)AAGY (SEQ ID NO. 13) Macrocycle]
- ring closure, yield after HPLC ([1]; from (5-(hydroxymethyl)thiazol-2-yl)-Val-Ala-Ala-Gly-Tyr-NH2?, 22-membered ring, TfOH, MeNO2, 6.45 mM, 25.0 °C, 2 steps): 52.7%

Compound: CC(C)[C@H]1NC2=NC=C(Cc3cc(ccc3O)C[C@@H](C(N)=O)NC(=O)[C@H](C)NC(=O)[C@H](C)NC1=O)S2 [Thia-V(l)AAY (SEQ ID NO. 11)]
- ring closure, yield after HPLC [1, 7]: 11%

Compound: CC(C)[C@H]1NC2=NC=C(Cc3cc(ccc3O)C[C@@H](C(N)=O)NC(=O)CNC1=O)S2 [Thia-V(l)GY]
- ring closure, yield after HPLC [1, 8]: 19%

Compound: C[C@@H]1NC(=O)CNC2=NC=C(Cc3cc(ccc3O)C[C@@H](C(N)=O)NC(=O)[C@H](C)NC1=O)S2 [“Thia-G-A-A-Y” (SEQ ID NO. 9) Macrocycle]
- ring closure, yield after HPLC ([1]; from (5-(hydroxymethyl)thiazol-2-yl)-Gly-Ala-Ala-Tyr-NH2?, 19-membered ring, TfOH, MeNO2, 14.7 mM, 25.0 °C, 2 steps): 70.2%

Compound: C[C@@H]1NC(=O)CNC2=NC=C(Cc3cc(ccc3O)C[C@@H](C(N)=O)NC1=O)S2 [“Thia-G-A-Y” Macrocycle]
- ring closure, yield after HPLC ([1]; from (5-(hydroxymethyl)thiazol-2-yl)-Gly-Ala-Tyr-NH2, 16-membered ring, TfOH, MeNO2, 7.0 mM, 25.0 °C): 56%

Compound: (5-(hydroxymethyl)thiazol-2-yl)-Gly-Gly-Tyr-NH2?
- ring closure, conversion [3]: 60%
